Assay results: the supplement of paper PMC11061612

What was measured:
Test in all cases: combination Emax (second highest fraction inhibited in the dose matrix, 72 h); higher = more inhibition; extreme values may be limits of the assay
[1] = tested on: NCI-H1944 (Lung Adenocarcinoma)
How it was run: (§1)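 Cell lines in DMEM/F12 or RPMI with 10% FBS were plated in 1536-well plates, held 24 hours at 37°C, 5% CO2, then given two-drug dose matrices for 72 hours (DMSO typically 0.2%). Viability was read by CellTiter-Glo 2.0 luminescence and scaled as inhibition from 0 (vehicle wells) to 1 (blank wells). Combination Emax is the second-highest inhibition in the matrix; Bliss excess is observed combination effect minus expected EA + EB − EA·EB, EA and EB being single-agent effects.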

A375 (Melanoma) = tested on: A375 (Melanoma)
How it was run: as §1

[2] = tested on: RPMI-8402 (T-Lymphoblastic Leukemia)
How it was run: as §1

[3] = tested on: GRANTA-519 (B-Cell Non-Hodgkin's Lymphoma)
How it was run: as §1

C32 (Melanoma) = tested on: C32 (Melanoma)
How it was run: as §1

[4] = tested on: NCI-H2009 (Lung Adenocarcinoma)
How it was run: as §1

[5] = tested on: ATN-1 (T-Lymphoblastic Leukemia)
How it was run: as §1

DK-MG (Glioblastoma) = tested on: DK-MG (Glioblastoma)
How it was run: as §1

[6] = tested on: KNS-62 (Squamous Cell Lung Carcinoma)
How it was run: as §1

[7] = tested on: HT-1197 (Bladder Carcinoma)
How it was run: as §1

[8] = tested on: NCI-H1975 (Lung Adenocarcinoma)
How it was run: as §1

[9] = tested on: SNU-1 (Gastric Carcinoma)
How it was run: as §1

[10] = tested on: TK (B-Cell Non-Hodgkin's Lymphoma)
How it was run: as §1

[11] = tested on: Daudi (Burkitt's Lymphoma)
How it was run: as §1

[12] = tested on: OCI-M1 (Acute Myeloid Leukemia)
How it was run: as §1

[13] = tested on: JJN-3 (Plasma Cell Myeloma)
How it was run: as §1

SMILES | combination Emax [1] | combination Emax (A375 (Melanoma)) | combination Emax [2] | combination Emax [3] | combination Emax (C32 (Melanoma)) | combination Emax [4] | combination Emax [5] | combination Emax (DK-MG (Glioblastoma)) | combination Emax [6] | combination Emax [7] | combination Emax [8] | combination Emax [9] | combination Emax [10] | combination Emax [11] | combination Emax [12] | combination Emax [13]
NC1(C(=O)N[C@@H](CCO)c2ccc(Cl)cc2)CCN(c2ncnc3[nH]ccc23)CC1 [Capivasertib] + CC(=O)c1c(C)c2cnc(Nc3ccc(N4CCNCC4)cn3)nc2n(C2CCCC2)c1=O [Palbociclib] (first compound max 10 µM, 7x7, partner max 10 µM) | 0.798 | 0.368 | 0.947 | 0.227 | 0.413 | 0.242 | 0.686 | 0.523 | 0.599 | 0.551 | 0.638 | 0.621 | 0.0563 | 0.491 | 0.61 | 0.298
CC(=O)c1c(C)c2cnc(Nc3ccc(N4CCNCC4)cn3)nc2n(C2CCCC2)c1=O [Palbociclib] + Cn1cnc2c(F)c(Nc3ccc(Br)cc3Cl)c(C(=O)NOCCO)cc21 [Selumetinib] (first compound max 10 µM, 7x7, partner max 10 µM) | 0.534 | 0.705 | 0.957 | 0.367 | 0.959 | 0.363 | 0.48 | 0.435 | 0.552 | 0.245 | 0.455 | 0.491 | 0.196 | 0.415 | 0.833 | 0.168
Cn1cnc2c(F)c(Nc3ccc(Br)cc3Cl)c(C(=O)NOCCO)cc21 [Selumetinib] + C=CCn1c(=O)c2cnc(Nc3ccc(N4CCN(C)CC4)cc3)nc2n1-c1cccc(C(C)(C)O)n1 [AZD1775] (first compound max 10 µM, partner max 1 µM) | 0.706 | 0.755 | 1 | 0.869 | 0.987 | 0.779 | 0.974 | 0.408 | 0.434 | 0.507 | 0.492 | 0.766 | 0.93 | 0.662 | 0.956 | 0.67
COc1nnc2ccc(N3CCC(c4ccc(OCCN5CCN(C)C(=O)[C@H]5C)cc4)CC3)nn12 [AZD5153] + CC1(C)CCC(CN2CCN(c3ccc(C(=O)NS(=O)(=O)c4ccc(NCC5CCOCC5)c([N+](=O)[O-])c4)c(Oc4cnc5[nH]ccc5c4)c3)CC2)=C(c2ccc(Cl)cc2)C1 [Venetoclax] (first compound max 1 µM, 7x7, partner max 1 µM) | 0.566 | 0.44 | 0.791 | 0.69 | 0.261 | 0.373 | 0.516 | 0.539 | 0.519 | 0.656 | 0.667 | 0.645 | 0.994 | 0.58 | 1 | 0.892
CC(=O)c1c(C)c2cnc(Nc3ccc(N4CCNCC4)cn3)nc2n(C2CCCC2)c1=O [Palbociclib] + CC1(C)CCC(CN2CCN(c3ccc(C(=O)NS(=O)(=O)c4ccc(NCC5CCOCC5)c([N+](=O)[O-])c4)c(Oc4cnc5[nH]ccc5c4)c3)CC2)=C(c2ccc(Cl)cc2)C1 [Venetoclax] (first compound max 10 µM, 7x7, partner max 1 µM) | 0.523 | 0.195 | 0.972 | 0.541 | 0.0845 | 0.0582 | 0.608 | 0.286 | 0.268 | 0.16 | 0.423 | 0.451 | 0.975 | 0.442 | 0.499 | 0.261
COc1nnc2ccc(N3CCC(c4ccc(OCCN5CCN(C)C(=O)[C@H]5C)cc4)CC3)nn12 [AZD5153] + Cn1cnc2c(F)c(Nc3ccc(Br)cc3Cl)c(C(=O)NOCCO)cc21 [Selumetinib] (first compound max 1 µM, 7x7, partner max 10 µM) | 0.717 | 0.868 | 0.774 | 0.206 | 1 | 0.716 | 0.508 | 0.652 | 0.647 | 0.806 | 0.72 | 0.71 | 0.232 | 0.527 | 1 | 0.955
Cn1cnc2c(F)c(Nc3ccc(Br)cc3Cl)c(C(=O)NOCCO)cc21 [Selumetinib] + CC(C)n1c(=O)n(C)c2cnc3cc(F)c(-c4ccc(OCCCN5CCCCC5)nc4)cc3c21 [AZD1390] (first compound max 10 µM, 7x7, partner max 0.3 µM) | 0.285 | 0.684 | 0.0871 | 0.095 | 0.948 | 0.405 | 0.172 | 0.323 | 0.439 | 0.152 | 0.342 | 0.384 | 0.177 | 0.211 | 0.749 | 0.281
COc1nnc2ccc(N3CCC(c4ccc(OCCN5CCN(C)C(=O)[C@H]5C)cc4)CC3)nn12 [AZD5153] + CCN(CCO)CCCOc1ccc2c(Nc3cc(CC(=O)Nc4cccc(F)c4)[nH]n3)ncnc2c1 [AZD2811] (first compound max 1 µM, 7x7, partner max 1 µM) | 0.711 | 0.562 | 0.999 | 0.56 | 0.38 | 0.382 | 0.734 | 0.614 | 0.596 | 0.742 | 0.781 | 0.653 | 0.371 | 0.677 | 1 | 0.876
COc1nnc2ccc(N3CCC(c4ccc(OCCN5CCN(C)C(=O)[C@H]5C)cc4)CC3)nn12 [AZD5153] + C[C@@H]1COCCN1C2=NC(=NC(=C2)C3(CC3)[S@](=N)(=O)C)C4=C5C=CNC5=NC=C4 [AZD6738] (first compound max 1 µM, 7x7, partner max 10 µM) | 0.88 | 0.774 | 1 | 0.906 | 0.606 | 0.645 | 0.984 | 0.624 | 0.625 | 0.724 | 0.737 | 0.823 | 0.968 | 0.843 | 1 | 0.964
NC1(C(=O)N[C@@H](CCO)c2ccc(Cl)cc2)CCN(c2ncnc3[nH]ccc23)CC1 [Capivasertib] + CCN(CCO)CCCOc1ccc2c(Nc3cc(CC(=O)Nc4cccc(F)c4)[nH]n3)ncnc2c1 [AZD2811] (first compound max 10 µM, 7x7, partner max 1 µM) | 0.628 | 0.421 | 0.939 | 0.597 | 0.54 | 0.386 | 0.86 | 0.484 | 0.561 | 0.439 | 0.611 | 0.404 | 0.231 | 0.806 | 0.619 | 0.376
Cn1cnc2c(F)c(Nc3ccc(Br)cc3Cl)c(C(=O)NOCCO)cc21 [Selumetinib] + CCN(CCO)CCCOc1ccc2c(Nc3cc(CC(=O)Nc4cccc(F)c4)[nH]n3)ncnc2c1 [AZD2811] (first compound max 10 µM, 7x7, partner max 1 µM) | 0.381 | 0.718 | 0.754 | 0.439 | 0.999 | 0.676 | 0.734 | 0.38 | 0.495 | 0.223 | 0.423 | 0.53 | 0.262 | 0.387 | 0.841 | 0.551
COc1nnc2ccc(N3CCC(c4ccc(OCCN5CCN(C)C(=O)[C@H]5C)cc4)CC3)nn12 [AZD5153] + C=CCn1c(=O)c2cnc(Nc3ccc(N4CCN(C)CC4)cc3)nc2n1-c1cccc(C(C)(C)O)n1 [AZD1775] (first compound max 1 µM, partner max 1 µM) | 0.84 | 0.637 | 1 | 0.874 | 0.354 | 0.703 | 0.98 | 0.689 | 0.542 | 0.724 | 0.728 | 0.737 | 0.97 | 0.753 | 0.999 | 0.873
Cn1cnc2c(F)c(Nc3ccc(Br)cc3Cl)c(C(=O)NOCCO)cc21 [Selumetinib] + C[C@@H]1COCCN1C2=NC(=NC(=C2)C3(CC3)[S@](=N)(=O)C)C4=C5C=CNC5=NC=C4 [AZD6738] (first compound max 10 µM, 7x7, partner max 10 µM) | 0.879 | 0.772 | 0.974 | 0.909 | 1 | 0.627 | 0.97 | 0.417 | 0.524 | 0.422 | 0.496 | 0.79 | 0.909 | 0.672 | 0.984 | 0.677
NC1(C(=O)N[C@@H](CCO)c2ccc(Cl)cc2)CCN(c2ncnc3[nH]ccc23)CC1 [Capivasertib] + Cn1cnc2c(F)c(Nc3ccc(Br)cc3Cl)c(C(=O)NOCCO)cc21 [Selumetinib] (first compound max 10 µM, 7x7, partner max 10 µM) | 0.738 | 0.832 | 0.633 | 0.205 | 1 | 0.584 | 0.77 | 0.621 | 0.914 | 0.531 | 0.829 | 0.574 | 0.0522 | 0.212 | 0.926 | 0.358
